The IC50 is the midpoint of a concentration-inhibition curve.

Each structure is given as a SMILES string.

Results on two molecules are retold here after publication PMC7279038, “Antioxidant and Neuroprotective Effects Induced by Cannabidiol and Cannabigerol in Rat CTX-TNA2 Astrocytes and Isolated Cortexes” (International Journal of Molecular Sciences, 2020).

One assay relates to histone H2B. As to the kind of experiment: Untargeted proteomic analysis of cortexes, H2B. Also on record: species or system rat. Conditions: CBD 1000 nM, CBG 1 nM. How it is done:
(§1) Sprague–Dawley rats (200–250 g) were sacrificed by CO2 inhalation (Italian Health Ministry authorization N. F4738.N.XTQ, delivered on 11th November 2018) and isolated prefrontal cortex specimens were immediately explanted and incubated in thermostatic shaking bath at 37 °C for 1 h (incubation period), in Krebs–Ringer buffer at the following K^+ concentrations:
Cortexes were stimulated with CBD (1000 nM) and CBD (1 nM). Afterwards, specimens were homogenized in perchloric acid solution (0.05 M) for the extraction and quantification of nitrites, via the aforementioned colorimetric Griess assay, and serotonin (5-HT), 5-hydroxyindoleacetic (5HIIA),3-hydroxykinurenine (3-HK) and kinurenic acid (KA) (ng/mg wet tissue) via high performance liquid chromatography analysis. Additionally, an untargeted proteomic analysis was carried out on the cortex homogenate. The analytical protocols for 5-HT, 5HIIA, 3-HK, KA and protein level determinations are described below. […]
After protein quantification, a volume corresponding to 50 μg of proteins was loaded onto a Nanosep 10-kDa-cutoff filter (Pall Corporation, Michigan, USA) and digested according to the protocol we routinely use in our laboratory, adapted from Distler et al. Briefly, the sample was washed twice with 200 μL urea buffer (8M urea, 100 mM Tris pH 8.5 in milliQ water) to remove the detergents present in the lysis buffer. […]

A short description of assay [1]: Ferric reducing antioxidant power (FRAP). Conditions: mean ± S.D., n = 3. How it is done: For the ferric reducing antioxidant power (FRAP) activity assay, sample solution was added to premixed FRAP reagent (2 mL) containing acetate buffer (0.3 M, pH 3.6), 2,4,6-tris(2-pyridyl)-S-triazine (TPTZ) (10 mM) in 40 mM HCl and ferric chloride (20 mM) in a ratio of 10:1:1 (v/v/v). Then, the sample absorbance was read at 593 nm after a 30 min incubation at room temperature. FRAP activity was expressed as IC50 values.

The target in assay [2] is T1, AChE (acetylcholinesterase) (Electrophorus electricus, UniProt O42275).
T1 construct: purchased Sigma Aldrich S.r.l., Milan, Italy Type-VI-S (catalogue number not given)
The experiment in a line: AChE inhibition, colorimetric cholinesterase assay. In kind it is biochemical, electric eel. The note with it: mean ± S.D., n = 3.

Assay [3] relates to isolated rat cortexes, 5HIIA/5-HT ratio. The experiment in a line: K+ 60 mM neurotoxicity paradigm, 5-HT turnover. The note with it: CBD 1000 nM, CBG 1 nM. How it is done:
as §1
Cortexes were stimulated with CBD (1000 nM) and CBD (1 nM). Afterwards, specimens were homogenized in perchloric acid solution (0.05 M) for the extraction and quantification of nitrites, via the aforementioned colorimetric Griess assay, and serotonin (5-HT), 5-hydroxyindoleacetic (5HIIA),3-hydroxykinurenine (3-HK) and kinurenic acid (KA) (ng/mg wet tissue) via high performance liquid chromatography analysis. […]
Tissue 3-HK, 5-HT and 5HIIA levels were analyzed through an HPLC apparatus consisting of a Jasco (Tokyo, Japan) PU-2080 chromatographic pump and an ESA (Chelmsford, MA, USA) Coulochem III coulometric detector, equipped with a microdialysis cell (ESA-5014b), a porous graphite working electrode and a solid state palladium reference electrode. The analytical conditions for identification and quantification were selected according to previous studies. […] The chromatograms were monitored at the analytical detector 2. […] Sample concentrations were calculated by linear regression curve (y = bx + m) obtained with standard. […]

T1 sequence (O42275 24-633): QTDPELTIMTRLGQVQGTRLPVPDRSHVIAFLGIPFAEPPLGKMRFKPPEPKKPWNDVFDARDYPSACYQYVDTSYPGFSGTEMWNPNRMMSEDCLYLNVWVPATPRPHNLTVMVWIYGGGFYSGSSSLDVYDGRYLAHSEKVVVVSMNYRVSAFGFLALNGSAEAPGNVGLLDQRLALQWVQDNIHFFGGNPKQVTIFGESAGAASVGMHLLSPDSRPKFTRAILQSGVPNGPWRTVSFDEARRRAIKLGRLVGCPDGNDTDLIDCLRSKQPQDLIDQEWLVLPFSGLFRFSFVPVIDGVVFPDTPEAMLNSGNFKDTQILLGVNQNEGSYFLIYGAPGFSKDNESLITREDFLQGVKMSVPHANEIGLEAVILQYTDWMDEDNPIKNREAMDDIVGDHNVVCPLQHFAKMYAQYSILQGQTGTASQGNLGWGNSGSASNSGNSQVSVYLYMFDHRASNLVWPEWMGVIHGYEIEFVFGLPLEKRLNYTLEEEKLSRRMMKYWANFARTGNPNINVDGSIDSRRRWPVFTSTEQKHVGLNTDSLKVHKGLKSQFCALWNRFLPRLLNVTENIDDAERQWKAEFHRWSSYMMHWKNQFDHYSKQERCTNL

`CCCCCc1cc(O)c(C/C=C(\C)CCC=C(C)C)c(O)c1` [CBG, cannabigerol]: in the assay with histone H2B, the “effect on K+ 60 mM-induced reduction in H2B level” value is “effective in counteracting the downregulation”. Besides, the IC50 in assay [1] was above 2 mM; in assay [2] it was 1.15 ± 0.03 mM. Besides, the “effect on K+ 60 mM-induced increase in 5-HT turnover (5HIIA/5-HT ratio)” value in assay [3] was “able to prevent the 5-HT depletion”.
As to `C=C(C)[C@@H]1CCC(C)=C[C@H]1c1c(O)cc(CCCCC)cc1O` [CBD, Cannabidiol], the “effect on K+ 60 mM-induced reduction in H2B level” value with histone H2B is listed as “effective in counteracting the downregulation”. Further, the IC50 was above 2 mM in assay [1] and 1.04 ± 0.02 mM in assay [2]. In addition, in assay [3], the “effect on K+ 60 mM-induced increase in 5-HT turnover (5HIIA/5-HT ratio)” value is “able to prevent the 5-HT depletion”.
